# What was measured:
# NOMO-1 cells = test: BETi-resistant NOMO-1 AML cells: proliferation and viability; format: cell-based
# Protocol: A BETi-resistant acute myeloid leukemia (AML) cell line was prepared. NOMO-1 cells were treated with increasing concentrations of (9), and when the population consisted of less than 80% live cells, viable cells were enriched by spinning over Ficoll-Paque (GE Healthcare). At the end of this procedure cells were able to proliferate in the presence of 1 μM (9), and were maintained at this dose, which is about 30-fold higher than their original GI50 (FIG. 6A). The ideal growth conditions for the BETi-tolerant cells appeared to be in the presence of ˜0.1 μM (9). While parental cells induced a robust apoptotic response in response to BETi, resistant cells grown in the presence of BETi only underwent apoptosis when the inhibitor was completely removed (FIG. 6B).
# (See e.g., Fernald and Kurokawa. Evading Apoptosis in Cancer. Trends Cell Biol. 2013 December; 23(12): 620-633.) Expression of the pro-apoptotic gene BCL2L11 (encoding BIM) was increased in parental cells upon treatment with BETi (FIG. 6C). The relative expression ratio of BCL2L11/BCL2 correlated with the apoptotic response in parental cells (FIG. 6D). In the resistant cells cultured in the presence of (9), high levels of BIM were maintained (FIG. 6C). […]
# AMO-1 cell line = test: Sub-G1 (apoptosis) and G0/G1 (G1 arrest) DNA content after 4 days of treatment, flow cytometry; format: cell-based
# Protocol: (§1) Approximately 60 hematological cancer cell lines were profiled, with representative numbers of leukemia, multiple myeloma/plasmacytoma, and lymphoma cell lines. Cells were grown in the presence of BET inhibitors, (9), (10), and (11), for 4 days. Viability was measured using a fluorescent dye (resazurin, Sigma) that measures mitochondrial fitness as a proxy for cell number. Raw fluorescence values at each compound concentration were normalized to the values in the absence of compound, and percentage growth was plotted to determine the concentration of compound at which 50% growth inhibition was achieved (GI50). Cells were then fixed and stained with propidium iodide for flow cytometric determination of cell cycle distribution. The percentage of cells with less than G0/G1 DNA content (% subG1) was used as a measurement of apoptosis. The percentage of viable cells (non-subG1 cells) with G0/G1 DNA content was measured, and the % GI for control cells was subtracted from the % GI at each compound concentration to calculate a percentage increase in G1.
# The bottom panels show the dose dependent increase in the percentage of cells with sub-G1 DNA content (apoptosis) and G0/G1 DNA content (G1 arrest) in response to 4 days of treatment with the same BET inhibitors in the AMO-1 cell line.
# A375 cells = test: Growth inhibition (GI50) of A375 cells by BET inhibitor; format: cell-based, human
# Protocol: as §1
# The human melanoma cell line A375 is phenotypically sensitive to BET inhibition, with a GI50 of 0.10 μM for (9) (FIG. 3, top panel). To understand possible mechanisms of acquired and de novo resistance to BET inhibition, A375 cells were grown in the presence of 1 μM of (9) for approximately 90 days. […]
# [1] = test system: panel of 245 cell lines of varying lineages; test: Viability of a panel of 245 cell lines treated with BET inhibitor for 3 or 4 d (Cell Titer Glo or resazurin); format: cell-based
# Protocol: In order to identify predictive biomarkers for phenotypic response to BET inhibition, viability data was obtained for a panel of cell lines for which gene expression data are available. A panel of 245 cell lines of varying lineages (FIG. 7) was treated with the BET bromodomain inhibitor (9) for 3 or 4 d. Viability was assessed using either Cell Titer Glo (Promega) or resazurin (Sigma). GI50 values were determined as the concentration of inhibitor that caused viability to be reduced by 50% relative to the vehicle-treated control cells. Cell lines were defined as “sensitive” if GI50 values were at or below 0.25 μM, and as “insensitive” if GI50 values were above 0.25 μM. […] Where multiple probe sets were available for a given gene, the probe set that hybridized to all transcript variants and gave the largest standard deviation across the panel of cell lines was chosen. Based on the correlations shown in FIGS. 8 and 9, cell lines expressing high levels of BCL2 were defined as those expressing an RMA value of BCL2 within the top 33% of all 245 cell lines. Similarly, cell lines expressing low levels of BCL2L1, BCL2L2, and BAD were defined as those expressing RMA values of these genes within the bottom 33% of all cell lines. […] Further enrichment was obtained by combining criteria, with the highest enrichment obtained by selecting for cell lines with high expression of BCL2 and low expression of BCL2L1 (65%±7% response rate) or high expression of BCL2 and low expression of BAD (75%±6% response rate) (FIG. 11). Similar enrichment of responsive cell lines is obtained when cell lines of hematologic origin are considered separately from those of solid tumor origin (FIG. 12-15).
# [2] = test system: BET inhibitor resistant A375 cells; test: Co-treatment of BET inhibitor resistant A375 cells with (9) and ABT-737 for 11 days; format: cell-based, human; details: resistant A375 cells co-treated with 1 μM (9) and increasing concentrations of ABT-737, 11 days
# Protocol: BCL-xL is targeted by several commercially available BCL-2 family small molecule inhibitors (Billard, C. et al. BH3 mimetics: status of the field and new developments. Mol Cancer Ther. 2013 September; 12(9):1691-700). To test whether pharmacological inhibition of BCL-xL would restore sensitivity to BET inhibition in BET inhibitor resistant A375 cells, parental and resistant cells were co-treated with 1 μM (9) or DMSO and increasing concentrations of the pan-BCL2 inhibitor ABT-737 for 11 days (Ottersdorf, T., et al. An inhibitor of Bcl-2 family proteins induces regression of solid tumours. Nature. 2005 Jun. 2; 435(7042):677-81).
smiles,measurement,setting,value
Cc1sc2c(c1C)C(c1ccc(Cl)cc1)=N[C@@H](CC(N)=O)c1nnc(C)n1-2 [(9)],maintenance concentration of resistant cells (1 μM) relative to original GI50,NOMO-1 cells; BETi-resistant NOMO-1 cells proliferating in 1 μM (9),about 30 fold
same,maximal response (% sub-G1 and G0/G1 DNA content),AMO-1 cell line,equivalent
same,shift in GI50 of resistant clones relative to parental cells,"A375 cells; A375 clones grown in 1 μM (9) for approximately 90 days, after 11 days",relatively modest shift in GI50
same,GI50,"A375 cells; A-375, parental human melanoma cell line A375",100 nM
same,overall response rate (fraction of cell lines with GI50 equal to or less than 0.25 μM),[1]; all 245 cell lines,28%
same,response rate (fraction of cell lines with GI50 equal to or less than 0.25 μM),[1]; cell lines with high expression of BCL2 and low expression of BAD,75%±6%
same,response rate (fraction of cell lines with GI50 equal to or less than 0.25 μM),[1]; cell lines with high expression of BCL2 and low expression of BCL2L1,65%±7%
Cc1noc2c1-c1ccccc1C(c1ccc(Cl)cc1)=N[C@H]2CC(N)=O [(10)],maximal response (% sub-G1 and G0/G1 DNA content),AMO-1 cell line,equivalent
Cc1noc2c1-c1ccc(-c3cnn(C)c3)cc1C(c1ccc(Cl)cc1)=N[C@H]2CC(N)=O [(11)],maximal response (% sub-G1 and G0/G1 DNA content),AMO-1 cell line,equivalent
"CC1(C)CCC(CN2CCN(c3ccc(C(=O)NS(=O)(=O)c4ccc(NCC5CCOCC5)c([N+](=O)[O-])c4)c(Oc4cnc5[nH]ccc5c4)c3)CC2)=C(c2ccc(Cl)cc2)C1 [ABT-199, reference compound]",phenotypic sensitivity of resistant cells to BCL2 inhibitor,"NOMO-1 cells; resistant NOMO-1 cells, FIG. 6f",increased phenotypic sensitivity
CN(C)CC[C@H](CSc1ccccc1)Nc1ccc(S(=O)(=O)NC(=O)c2ccc(N3CCN(Cc4ccccc4-c4ccc(Cl)cc4)CC3)cc2)cc1[N+](=O)[O-] [ABT-737],restoration of sensitivity to (9),[2],restores sensitivity to (9) in a dose-dependent manner

# Source: US20170027955A1, “EXPRESSION LEVELS OF BCL-XL, BCL2, BCL-W, AND BAD AND CANCER THERAPIES” (Constellation Pharmaceuticals, Inc., priority 2014, published 2017)
